# Assay results taken from patent US20090246293A1 (priority 2008, published 2009).
# Where two headings read alike, the source gives them in different places.
# Experiments:
# [1] = tested on: Phytophthora infestans (PHYTIN); format: in vivo
# [2] = tested on: Plasmopara viticola (PLASVI); format: in vivo; details: for Reduction in percent disease: aldehyde derivative 100 ppm with mancozeb, PLASVI
# [3] = tested on: Pseudoperonospora cubensis (PSPECU); details: in vivo
# [4] = aldehyde derivative 500 ppm with mancozeb, Table 16
# [5] = fungicide with Formulation I at 100 ppm, Table 18
Compound,Reduction in percent disease ([2]; Table 15),Reduction in percent disease [3],further results
CC(C)(C)C/C=N/NC(=O)c1cccc(C(=O)N/N=C/CC(C)(C)C)c1 [Compound S],–,–,"Reduction in percent disease PHYTIN [1, 4]: xx (21-35% reduction in percent disease); Reduction in percent disease PLASVI [2, 4]: x (0-20% reduction in percent disease); Reduction in percent disease PSPECU [3]: x (key: x: 0-20% reduction in percent disease; xx: 21-35% reduction in percent disease; xxx: 36-50% reduction in percent disease; xxxx: >50% reduction in percent disease)"
CCCCCCCCCCCCCCCCCC(=O)NN=CCC(C)C [Compound L],xxx (36-50% reduction in percent disease),xx (key: x: 0-20% reduction in percent disease; xx: 21-35% reduction in percent disease; xxx: 36-50% reduction in percent disease; xxxx: >50% reduction in percent disease),–
CC(C)C/C=N/NC(=O)CCCCC(=O)N/N=C/CC(C)C [Compound N],x (0-20% reduction in percent disease),xx (key: x: 0-20% reduction in percent disease; xx: 21-35% reduction in percent disease; xxx: 36-50% reduction in percent disease; xxxx: >50% reduction in percent disease),–
CCCC(=O)N/N=C/CC(C)C [Compound M],xx (21-35% reduction in percent disease),xxx (key: x: 0-20% reduction in percent disease; xx: 21-35% reduction in percent disease; xxx: 36-50% reduction in percent disease; xxxx: >50% reduction in percent disease),–
CC(=O)N/N=C/CC(C)C [Compound H],–,xx (key: x: 0-20% reduction in percent disease; xx: 21-35% reduction in percent disease; xxx: 36-50% reduction in percent disease; xxxx: >50% reduction in percent disease),Reduction in percent disease ([2]; Table 13): xx (21-35% reduction in percent disease)
CC(C)C/C=N/NC(=O)C(=O)N/N=C/CC(C)C [Compound G],–,xxx (key: x: 0-20% reduction in percent disease; xx: 21-35% reduction in percent disease; xxx: 36-50% reduction in percent disease; xxxx: >50% reduction in percent disease),Reduction in percent disease ([2]; Table 13): xx (21-35% reduction in percent disease)
CO/N=C(/C(=O)OC)c1ccccc1COc1ccccc1C [Kresoxim-methyl],–,–,"Reduction in percent disease PHYTIN [1, 5]: x (0-20% reduction in percent disease); Reduction in percent disease PSPECU [3]: x (key: x: 0-20% reduction in percent disease; xx: 21-35% reduction in percent disease; xxx: 36-50% reduction in percent disease; xxxx: >50% reduction in percent disease); Reduction in percent disease, Formul. II [3]: x (key: x: 0-20% reduction in percent disease; xx: 21-35% reduction in percent disease; xxx: 36-50% reduction in percent disease; xxxx: >50% reduction in percent disease)"
CCCCCCCC(=O)N/N=C/CC(C)C [Compound K],xx (21-35% reduction in percent disease),xx (key: x: 0-20% reduction in percent disease; xx: 21-35% reduction in percent disease; xxx: 36-50% reduction in percent disease; xxxx: >50% reduction in percent disease),–
COC(=O)N(OC)c1ccccc1COc1ccn(-c2ccc(Cl)cc2)n1 [Pyraclostrobin],–,–,"Reduction in percent disease PHYTIN [1, 5]: x (0-20% reduction in percent disease); Reduction in percent disease PSPECU [3]: x (key: x: 0-20% reduction in percent disease; xx: 21-35% reduction in percent disease; xxx: 36-50% reduction in percent disease; xxxx: >50% reduction in percent disease)"
CC(C)C/C=N/NC(N)=O [Compound D],–,xx (key: x: 0-20% reduction in percent disease; xx: 21-35% reduction in percent disease; xxx: 36-50% reduction in percent disease; xxxx: >50% reduction in percent disease),Reduction in percent disease ([2]; Table 13): x (0-20% reduction in percent disease)
O=C1c2ccccc2C(=O)N1SC(Cl)(Cl)Cl [Folpet],–,–,"Reduction in percent disease, Formul. I ([1]; PHYTIN, fungicide with Formulation I at 100 ppm of attractant derivative, Table 22): x (0-20% reduction in percent disease); Reduction in percent disease, Formul. I [3]: x (key: x: 0-20% reduction in percent disease; xx: 21-35% reduction in percent disease; xxx: 36-50% reduction in percent disease; xxxx: >50% reduction in percent disease)"
CC(C)C/C=N/NC(=O)CCCCCCCCC(=O)N/N=C/CC(C)C [Compound J],x (0-20% reduction in percent disease),xx (key: x: 0-20% reduction in percent disease; xx: 21-35% reduction in percent disease; xxx: 36-50% reduction in percent disease; xxxx: >50% reduction in percent disease),–
